Results reported in patent publication US9587471B2, “Controlling bioavailability of nutrient additions in subsurface formations” (E I DU PONT DE NEMOURS AND COMPANY, priority 2008, dated 2017).
Structures can show the parent of a compound that is named as a salt.

What was measured:
[1] = tested on: Pseudomonas stutzeri strain LH4:15 (ATCC PTA-8823); assay: Anaerobic growth and survival: biocidal versus biostatic inhibition; format: cell-based; settings: for change in Log cell number: day 0 vs day 7, anaerobic; for Final anaerobic vial OD: starting OD600 = 0.05
Protocol: In this invention, the anaerobic growth and survival was tested in 20 ml crimp-capped anaerobic vials, using a complete nutrient medium of the following composition: Na2HPO4.7H2O, 1.4 g/L, KH2PO4, 0.69 g/L, NH4Cl, 0.5 g/L, MgSO4.7H2O, 0.1/L g, SL-10 trace metals, 10 ml, NaCl, 7.5 g/L, NaHCO3, 7.2 g/L, sodium nitrate, 12 g/L, Na lactate, 7 g/L, yeast extract, 10 mg/L, pH 7.3-7.8.
The anaerobic growth and survival was tested as outlined above. […] Vials were inoculated using an overnight aerobic culture of Pseudomonas stutzeri strain LH4:15 (ATCC PTA-8823) in Luria Bertani medium (LB, Mediatech Inc., Herndon, Va.,) at a final OD600 of 0.05. Within 2 hours of inoculation, serial dilutions from each treatment vial were made into aerobic LB medium to determine the cell numbers at Day 0. After approximately 24 hours cell numbers were estimated by noting the highest positive dilution based on the presence or absence of turbidity in dilutions of 10^−1 to 10^−11 in the serial dilution plates. Cell numbers on Day 0 and Day 7 were measured to obtain a survival estimate during inhibitor exposure.

[2] = Partition coefficient in an oil/water system; format: physicochemical
Protocol: In this Example a contribution to inhibitor dissipation made by adsorption of the inhibitor into the oil phase may be observed. For example, nitrate as a nitrogen source and electron acceptor and glucose as a growth substrate, each at 25 g/L concentration, may be added in combination to the injection water stream. In addition, benzalkonium chloride may be added to the inhibited nutrient composition. The composition may be pumped into the oil well formation for 5 hours. The industrial biocide inhibits growth of microbial populations in the oil well formation independent of the added nutrient concentrations. As illustrated in Example 2 until the benzalkonium chloride reaches a concentration of <0.1 g/L, microbial growth is inhibited. Using physical parameters common in oil well formations found in unconsolidated sandstone regions of the North Slope, dispersion modeling determines that it will take approximately fourteen days for flow dispersion to dilute benzalkonium chloride to approximately <0.1 g/L. In addition, it may be empirically determined, through laboratory experimentation, that the partition coefficient for benzalkonium chloride in an oil/water system is approximately 10. Therefore, rather than adding benzalkonium chloride at 2% concentration based on dispersion modeling, it is added at a 10% initial concentration to counter act losses due to adsorption. […]

[3] = tested on: Pseudomonas stutzeri strain LH4:15 (ATCC PTA-8823); assay: Aerobic growth response (turbidity) to varying concentrations of industrial preservatives; format: cell-based; settings: for concentration that must be reached before inhibition of microbial growth ends: stated 'as illustrated in Example 2';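 on growth (turbidity): single plus means slight turbidity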
Protocol: (§1) Typically cells were grown at a temperature in the range of about 25° C. to about 40° C. in an appropriate medium.
Pseudomonas stutzeri strain LH4:15 (ATCC PTA-8823) was grown as outlined in Example 1. Various preservatives commonly used in the food, cosmetic, and water treatment industries were tested for their inhibitory effect at various concentrations (Table 2). Growth was monitored visually and positive growth was indicated by moderate to heavy turbidity.

[4] = tested on: native anaerobic population in the injection water from the North Slope of Alaska; assay: Growth and nitrate+nitrite consumption of native populations in injection water; format: cell-based
Protocol: (§2) Injection water was amended with sodium nitrate as electron acceptor plus a growth substrates. In addition 0.2% ethyl formate was added to the inhibited treatment. The injection water was incubated anaerobically at approximately 25° C. under an atmosphere of 80% nitrogen and 20% carbon dioxide, reflecting typical growth conditions in the North Slope oil well formations. Growth of the native populations, nitrate concentrations and ethyl formate concentrations were monitored over two weeks.

[5] = Decline (hydrolysis) of ethyl formate in injection water; format: physicochemical; settings: in about four days, anaerobic, approximately 25° C., 0.2% added
Protocol: The growth delay allows deeper penetration into the oil well formation and more widespread MEOR activation.
as §2

[6] = tested on: Pseudomonas stutzeri strain LH4:15, ATCC PTA-8823; assay: Aerobic growth response (turbidity) to varying concentrations of potential microbial nutrients; format: cell-based; further: key: − = no turbidity; + = slight turbidity; ++ = moderate to heavy turbidity
Protocol: as §1
Additional potential microbial nutrients were added at various concentrations as outlined in Table 1. Growth was monitored visually with positive growth indicated by moderate to heavy turbidity.

## Benzalkonium chloride
[1]; 0.01 g/L
  change in Log cell number: 0
  Final anaerobic vial OD: 0.12
[1]; 0.04 g/L
  change in Log cell number: 0
  Final anaerobic vial OD: 0.01
[1]; 0.08 g/L
  change in Log cell number: −4
  Final anaerobic vial OD: 0.02
[1]; 0.1 g/L
  change in Log cell number: Dead
  Final anaerobic vial OD: 0.02
[1]; 0.5 g/L
  change in Log cell number: Dead
  Final anaerobic vial OD: 0.06
[1]; 1 g/L
  change in Log cell number: Dead
  Final anaerobic vial OD: 0.32
[1]; anaerobic vials
  concentration that killed the cells on Day 0: ≥ 0.1 g/L
[2]
  partition coefficient: approximately 10
[3]; 0.0001 g/L
  growth (turbidity): ++
[3]; 0.001 g/L
  growth (turbidity): ++
[3]; 0.005 g/L
  growth (turbidity): ++
[3]; 0.01 g/L
  growth (turbidity): ++
[3]; 0.1 g/L
  growth (turbidity): −
[3]; 0.5 g/L
  growth (turbidity): −
[3]; 1 g/L
  growth (turbidity): −
[3]
  concentration that must be reached before inhibition of microbial growth ends: < 0.1 g/L

## CCOC=O [Ethyl formate]
[4]; 0.2% concentration
  delay of maximum growth: four
  effect on the maximum population in words: longer maintenance of the maximum population
[4]; 0.2% ethyl formate
  mean nitrate+nitrite loss rate: 190 ppm/day
[4]; 0.2% ethyl formate vs no added ethyl formate
  consumption of electron acceptors nitrate+nitrite slower in the inhibited treatment: 31%
[1]; 5 g/L
  change in Log cell number: −2
  Final anaerobic vial OD: 0.02
[1]; 10 g/L
  change in Log cell number: −6
  Final anaerobic vial OD: 0.01
[1]; 25 g/L
  change in Log cell number: −6
  Final anaerobic vial OD: 0.005
[1]; 50 g/L
  change in Log cell number: Dead
  Final anaerobic vial OD: 0.05
[1]; 80 g/L
  change in Log cell number: Dead
  Final anaerobic vial OD: 0.06
[5]
  decline of ethyl formate concentration: 10 fold
[6]; 0.1 g/L, 24 hours of incubation
  Growth response (turbidity): ++
[6]; 0.1 g/L, 48 hours of incubation
  Growth response (turbidity): ++
[6]; 0.1 g/L, 120 hours of incubation
  Growth response (turbidity): ++
[6]; 0.5 g/L, 24 hours of incubation
  Growth response (turbidity): ++
[6]; 0.5 g/L, 48 hours of incubation
  Growth response (turbidity): ++
[6]; 0.5 g/L, 120 hours of incubation
  Growth response (turbidity): ++
[6]; 1 g/L, 24 hours of incubation
  Growth response (turbidity): ++
[6]; 1 g/L, 48 hours of incubation
  Growth response (turbidity): ++
[6]; 1 g/L, 120 hours of incubation
  Growth response (turbidity): ++
[6]; 5 g/L, 24 hours of incubation
  Growth response (turbidity): +
[6]; 5 g/L, 48 hours of incubation
  Growth response (turbidity): ++
[6]; 5 g/L, 120 hours of incubation
  Growth response (turbidity): ++
[6]; 25 g/L, 24 hours of incubation
  Growth response (turbidity): −
[6]; 25 g/L, 48 hours of incubation
  Growth response (turbidity): −
[6]; 25 g/L, 120 hours of incubation
  Growth response (turbidity): −
[6]; 50 g/L, 24 hours of incubation
  Growth response (turbidity): −
[6]; 50 g/L, 48 hours of incubation
  Growth response (turbidity): −
[6]; 50 g/L, 120 hours of incubation
  Growth response (turbidity): −

## CN(C)C(=S)[S-].[Na+] [sodium dithiodimethyl carbamate]
[3]; 0.1 g/L
  growth (turbidity): ++
[3]; 0.2 g/L
  growth (turbidity): ++
[3]; 0.3 g/L
  growth (turbidity): −
[3]; 0.5 g/L
  growth (turbidity): −
[3]; 0.8 g/L
  growth (turbidity): −
[3]; 1 g/L
  growth (turbidity): −
[3]
  concentration that must be reached before inhibition of microbial growth ends: < 0.1 g/L

## OCCOc1ccccc1 [2-phenoxy-ethan-1-ol]
[3]; 1 g/L
  growth (turbidity): ++
[3]; 2 g/L
  growth (turbidity): ++
[3]; 3 g/L
  growth (turbidity): ++
[3]; 4 g/L
  growth (turbidity): −

## O=S(=O)([O-])[O-].OC[P+](CO)(CO)CO.OC[P+](CO)(CO)CO [Bis(tetrakis(hydroxymethyl))phosphonium sulfate]
[3]; 0.1 g/L
  growth (turbidity): ++
[3]; 0.2 g/L
  growth (turbidity): ++
[3]; 0.3 g/L
  growth (turbidity): −
[3]; 0.4 g/L
  growth (turbidity): −

## COC(=O)c1ccc(O)cc1 [Methylparaben]
[1]; 0.5 g/L
  change in Log cell number: 0
  Final anaerobic vial OD: 0.09
[1]; 0.6 g/L
  change in Log cell number: 0
  Final anaerobic vial OD: 0.05
[1]; 0.8 g/L
  change in Log cell number: 1
  Final anaerobic vial OD: 0.05
[1]; 1 g/L
  change in Log cell number: −1
  Final anaerobic vial OD: 0.04
[1]; 2.5 g/L
  change in Log cell number: −2
  Final anaerobic vial OD: 0.01
[1]; judged by OD600 and cell killing, Table 3
  effectiveness of the inhibitor in words: showed this desirable property at the lowest efficacious concentrations
[3]; 0.01 g/L
  growth (turbidity): ++
[3]; 0.05 g/L
  growth (turbidity): ++
[3]; 0.1 g/L
  growth (turbidity): ++
[3]; 0.5 g/L
  growth (turbidity): +
[3]; 1 g/L
  growth (turbidity): −
[3]; 2.5 g/L
  growth (turbidity): −
